Patent publication US20190374628A1, “MUTATED FRAGMENTS OF THE RAS PROTEIN” (Targovax ASA, priority 2015, published 2019)
Values joined by “and” are separate entries in the source; they are usually repeats but may differ in a detail not shown here. Equal values may be shown once.

Legend:
T-cells = test: 3-days T-cell proliferation assay (3H-thymidine) after three rounds of in vitro stimulation of PBMC bulk cultures with RAS peptides; assay type: cell-based, human; details: bulk cultures stimulated three rounds with TG02 + 13R, 10 μM peptide
Method: In this example, Buffy coats were collected from 4 normal human donors (Buffy 1, Buffy 2, Buffy 3, and Buffy 4) and were cultured in vitro. The in vitro PBMCs were stimulated with a single RAS peptide or a mixture of RAS peptides, and T-cell proliferation assays performed.
The procedure must be performed at room temperature until point 5. All handling of cells in the open is done in a vertical laminar flow hood. • 1. Rapidly transfer the vials, each vial with frozen PBMC from a buffy coat (Buffy 1, Buffy 2, Buffy 3, and Buffy 4), to a water bath at 37° C. • 2. Shake the vials manually at regular intervals (approx. 2-3 min.) and remove them from the water bath while some ice is still present. • 3. When all the ice is melted, transfer 1 ml of CellGro DC medium drop-wise to the cell suspension. • 4. Transfer the cell suspension to a 50 ml tube containing 20 ml of CellGro DC medium. • 5. Centrifuge cells at 500G for 5 min at room temperature. • 6. Resuspend the cells in 5 ml CellGro DC medium. • 7. Count the number of viable cells using a Burker chamber or KOVA Galsstic slides and adjust the cell concentration to 2×10^6 cells/ml in complete CellGro DC medium (see recipe). Total cell numbers: Buffy 1-45×10^6, Buffy 2-27.5×10^6, Buffy 3-40.5×10^6, and Buffy 4-40.5×10^6 cells.
b. Bulk cultures for increasing number of RAS peptide reactive T-cells • 1. […]

any RAS mutation = details: cited from earlier work

Substance | Counts per minute (CPM), APC + T-cell + 13 C (T-cells; Donor #3, single replicates) | Mean counts per minute (CPM), APC + T-cell + 13 C (T-cells; Mean Donor #3) | Outcome of treatment in patients having any RAS mutation (any RAS mutation)
KLVVVGAGCVGKSALTI (listed as Homo sapiens) [13C, RAS peptide of the peptide mixture having a G13C mutation] | 27813 CPM and 32522 CPM and 28869 CPM | 29735 CPM | 
paitumumab-FOLFOX4: panitumumab (printed paitumumab) in combination with FOLFOX4 chemotherapy |  |  | may even be harmed
